# Data published in patent US8053212B1, “Non-standard nucleoside analogs with reduced epimerization” (priority 2004, dated 2011).
# Assays:
# [1] = Epimerization at neutral pH followed by 1H NMR in D2O; assay type: physicochemical; settings: room temperature, after one week
# Procedure: To measure the rate of epimerization of the nucleoside at neutral pH, a sample was dissolved in D2O and stored at room temperature. The ^1H NMR was measured after several time intervals. […] In particular, the NMR signal arising from H-6 of the heterocycle remained unchanged.
# [2] = not given; remark: listed apart in the source
change of 1H NMR spectrum (epimerization) [1],"pseudo first order rate constant of initial epimerization, kpH2 (pH 2.0, 37° C., aqueous)","slope of replot of logk versus pH (pH 2.0 to 5.0, 37° C.)","pseudo first order rate constant of initial epimerization, kpH5 (pH 5.0, 37° C., aqueous)","epimerization at high pH (pH 11.0, 23° C., 14 days, HPLC)",fraction protonated at physiological pH [2],"""end"" value: fraction of starting material remaining at end of reaction (buffer, 336 h, pH 2)",Compound
did not change,≈ 10^−4 s^−1,−0.971,≈ 2×10^−7 s^−1,no epimerization was detected,> 80%,–,Nc1[nH]c(=O)c([C@H]2C[C@H](O)[C@@H](CO)O2)cc1[N+](=O)[O-]
–,–,–,–,–,–,0.09,"Nc1[nH]c(=O)c([C@H]2C[C@H](O)[C@@H](CO)O2)cc1[N+](=O)[O-] [nucleoside 4, 6-amino-5-nitro-3-(1′-beta-D-2′-deoxyribofuranosyl)-2(1H)-pyridone]"
